Test results published in ChEMBL document CHEMBL1127126, “Conformationally restricted analogs of CP-99,994: synthesis of a spirocyclic amine” (Bioorg Med Chem Lett, 1993).

Target: Substance-P receptor (Homo sapiens, UniProt P25103)
Assay: Tested for inhibitory activity against substance P receptor.

Chain of Substance-P receptor (P25103 whole entry): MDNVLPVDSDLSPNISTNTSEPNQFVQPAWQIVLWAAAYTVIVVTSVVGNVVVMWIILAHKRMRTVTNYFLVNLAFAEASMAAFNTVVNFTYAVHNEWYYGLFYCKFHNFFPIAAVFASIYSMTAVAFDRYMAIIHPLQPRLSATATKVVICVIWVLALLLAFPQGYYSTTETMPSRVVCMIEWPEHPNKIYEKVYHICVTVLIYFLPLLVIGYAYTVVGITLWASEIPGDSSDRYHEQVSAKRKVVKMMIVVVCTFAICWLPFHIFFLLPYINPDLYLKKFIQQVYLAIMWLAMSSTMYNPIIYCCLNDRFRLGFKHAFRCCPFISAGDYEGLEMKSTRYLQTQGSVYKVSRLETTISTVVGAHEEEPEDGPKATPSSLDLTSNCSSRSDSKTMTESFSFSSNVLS

- IC50: > 1000 nM
Compound: c1ccc([C@H]2NCCC[C@]23CC[C@H](c2ccccc2)N3)cc1
